For one data set, the target named is T1, 5-HT1A receptors (Rattus norvegicus, UniProt P19327).
T1 construct: 5-HT1A receptors in hippocampus membranes of rats; from tissue; host or cells: rat hippocampus membranes
T1 sequence (P19327 1-422): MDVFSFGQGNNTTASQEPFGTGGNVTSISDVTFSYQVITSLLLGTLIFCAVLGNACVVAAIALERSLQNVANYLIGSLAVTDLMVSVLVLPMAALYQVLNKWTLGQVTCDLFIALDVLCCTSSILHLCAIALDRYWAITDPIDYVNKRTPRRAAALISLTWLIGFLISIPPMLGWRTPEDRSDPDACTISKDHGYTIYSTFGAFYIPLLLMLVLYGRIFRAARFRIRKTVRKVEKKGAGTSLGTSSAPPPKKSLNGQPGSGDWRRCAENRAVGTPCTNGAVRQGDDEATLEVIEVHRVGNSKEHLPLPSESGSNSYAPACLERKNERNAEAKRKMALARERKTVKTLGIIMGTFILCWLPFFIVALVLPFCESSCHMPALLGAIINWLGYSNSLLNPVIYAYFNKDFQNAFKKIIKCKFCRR
Kind of data set: Affinity to the 5-HT1A receptor: [3H]-8-OH-DPAT binding in hippocampus membranes. The conditions noted are these: displacement of [3H]-8-OH-DPAT, hippocampus membranes of rats; Ki calculated from IC50. How it is done: 1. Affinity to the 5-HT1A Receptor
(Dompert et al., Naunyn-Schmiedeberg's Arch. Pharmacol. 1985, 328, 467-470).
In this test, binding of [^3H]-8-OH-DPAT to 5-HT1A receptors in hippocampus membranes of rats is measured.
In the binding test, IC50 values are determined which state at which concentration of test substance 50% of bound radio ligand is displaced. Taking into account the dissociation constants and the concentration of radio ligand, this is used to calculate the inhibition constant Ki.

Counter-ions that a name gives are not always drawn.

In the case of `O=C1c2ccccc2S(=O)(=O)N1CCCCNC[C@H]1CCc2cc(O)ccc2O1` (as salt: hydrochloride) [Example 2, 2-[4-({[(2R)-6-Hydroxy-3,4-dihydro-2H-chromen-2-yl]methyl}amino)butyl]-1,2-benzisothiazol-3(2H)-one 1,1-dioxide hydrochloride], the melting point lay in the range of 220 to 222 °C.

Turning to `COc1cc2c(cc1O)O[C@@H](CNCCCCN1C(=O)c3ccccc3S1(=O)=O)CC2` [Example 1, (R)-(−)-2-(4-{[(7-Hydroxy-6-methoxy-3,4-dihydro-2H-chromen-2-yl)methyl]-amino}butyl)-1,2-benzisothiazol-3(2H)-one 1,1-dioxide hydrochloride], on 5-HT1A receptors, the inhibition constant Ki is 3.15 nM.

For the compound `O=C1c2ccccc2S(=O)(=O)N1CCCCNC[C@H]1CCc2cc(O)ccc2O1` [Example 2, 2-[4-({[(2R)-6-Hydroxy-3,4-dihydro-2H-chromen-2-yl]methyl}amino)butyl]-1,2-benzisothiazol-3(2H)-one 1,1-dioxide hydrochloride], the Ki on 5-HT1A receptors is 1.93 nM.

In general, melting point refers to the temperature of the solid-liquid transition. As usually defined, the Ki is a dissociation constant, usually derived from enzyme kinetics or from competition with a known ligand.

(Values after patent US6919360B2, “Benzisothiazolyl-substituted aminomethyl chromanes for treating diseases of the central nervous system” (Bayer HealthCare AG, priority 2001, dated 2005).)
